Assay results published in US20170014468A1, “METHODS OF USE FOR THERAPEUTICS TARGETING THE PATHOGEN PORPHYROMONAS GINGIVALIS” (Cortexyme, Inc., priority 2014, published 2017).
Entries after “also recorded” stand apart in the source; their conditions may differ.

Columns and labels:
[1] = tested on: differentiated SH-SY5Y neuronal cells exposed to Kgp and/or RgpB; experiment: gingipain induced toxicity in differentiated SH-SY5Y neuronal cells; type: cell-based; settings: 100 nM Kgp and/or RgpB, 24 hours, microscopy
Protocol: SH-SY5Y neuroblastoma cells were cultured and differentiated in the presence of 5 uM retinoic acid based on established methods. Differentiation into neuronal cells was verified by observation of neurite outgrowth. The differentiated cells were exposed to 100 nM Kgp and/or RgpB for 24 hours, in the presence or absence of gingipain inhibitors. Results were recorded using a digital microscope camera.

P. gingivalis = settings: cited from earlier work
Rgp = settings: cited from earlier work

Row | Compound | protection against gingipain induced toxicity / cell death [1] | growth inhibition of P. gingivalis (P. gingivalis) | also measured
1 | CN(C)C(=O)[C@H](CCCCN)NC(=O)C(=O)[C@H](CCCN=C(N)N)NC(=O)[C@H](CCCCN)NC(=O)OCc1ccccc1 [Kyt-1] | can protect neurons; also recorded: effective but less so | – | –
2 | CN(NC(=O)CC[C@H](NC(=O)OCc1ccccc1)C(=O)N[C@@H](CCCCN)C(=O)C(=O)NCc1ccccc1)c1ccccc1 [Kyt-36] | can protect neurons; also recorded: more protective than Rgp inhibitors; also recorded: largely blocks gingipain induced toxicity | – | protection against gingipain induced toxicity / cell death ([1]; listed as Kyt 36): prevented gingipain induced neurodegeneration
3 | CC(C)C[C@H](NC(=O)[C@@H](O)[C@H](N)Cc1ccccc1)C(=O)O [bestatin] | – | selectively inhibits growth | –
4 | NC(=O)CI [iodoacetamide] | blocks toxicity | – | protection against gingipain induced toxicity / cell death ([1]; listed as Iodoacetamide): prevents this effect
5 | phenylalanyl-ureido-citrullinyl-valyl-cycloarginal [FA-70C1] | – | exhibits growth-inhibitory activity | Rgp inhibition (Rgp): potent Rgp inhibitor
